Drawing on patent publication US7550469B2, “Heterocyclic amide derivatives and their use as dopamine D3 receptor ligands” (Aventis Pharmaceuticals Inc., priority 2001, dated 2009), this text covers Ki for 26 molecules.

Where two headings read alike, the source gives them in different places.

In this experiment the target is T1, cloned human dopamine D3 receptors (Homo sapiens, UniProt P35462).
T1 construct: expressed in transfected cells; membrane homogenate
Kind of experiment: [N-Methyl-3H]Spiroperidol binding to cloned human dopamine D3 receptors (Protocol 1). A digest of the protocol:
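Membranes from CHO cells stably expressing cloned human D3 receptor were used for [N-methyl-3H]spiroperidol (60-90 Ci/mmol) binding. Assay buffer was 0.05 M Tris HCl pH 7.7 with 120 mM NaCl, 5 mM KCl, 2 mM CaCl2 and 1 mM MgCl2, optionally 0.1% ascorbic acid; total ligand concentration calculated from added CPM.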

Setting [1] is: the 14th table, read-out: D3 Ki.
The mark [2] stands for this setting: the 13th table, unit inferred, read-out: D3Ki.
Setting [3] is: the 21st table, read-out: D3 Ki.
[4] abbreviates: the 18th table, read-out: D3 Ki.
[5] abbreviates: the 17th table, read-out: D3 Ki.
The mark [6] stands for this setting: the 22nd table, read-out: D3 Ki.

T1 sequence (P35462 whole entry): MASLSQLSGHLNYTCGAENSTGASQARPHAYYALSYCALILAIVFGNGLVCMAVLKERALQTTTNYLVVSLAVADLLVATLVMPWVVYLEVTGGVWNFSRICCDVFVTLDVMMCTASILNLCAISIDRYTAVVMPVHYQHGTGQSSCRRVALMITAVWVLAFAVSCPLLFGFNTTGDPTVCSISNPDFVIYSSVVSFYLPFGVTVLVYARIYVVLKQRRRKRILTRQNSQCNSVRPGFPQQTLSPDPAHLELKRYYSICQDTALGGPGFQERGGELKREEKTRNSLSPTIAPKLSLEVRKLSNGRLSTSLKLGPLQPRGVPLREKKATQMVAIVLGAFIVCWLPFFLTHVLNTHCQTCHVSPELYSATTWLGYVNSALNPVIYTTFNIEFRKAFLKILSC

For `O=C(NC(CO)CCCN1CCN(c2csc3cc(C(F)(F)F)ccc23)CC1)c1cc2ccc(Cl)cc2s1` (stereo not shown) [compound 815686], the Ki runs as follows: (Table 2, read-out: D3K1) 275 nM; (read-out: D3K1) 275 nM; under setting [1], 275 nM.
As for `CSc1nsc(SC)c1C(=O)NCCCCN1CCCN(c2csc3cc(C(F)(F)F)ccc23)CC1` [S980661], the Ki under setting [2] worked out at 151 nM.
`O=C(NC(CO)CCCN1CCN(c2csc3cc(C(F)(F)F)ccc23)CC1)c1ccc(Cl)cc1` (stereo not shown) [compound 815690]: the Ki (Table 2, read-out: D3K1) was 245 nM; the Ki (read-out: D3K1) was determined as 245 nM; the Ki under setting [1] stood at 245 nM.
As for `C[C@@H]1CN(c2csc3cc(C(F)(F)F)ccc23)C[C@H](C)N1CCCCNC(=O)c1ccc2[nH]ccc2c1` [compound 826954], the Ki under setting [3] worked out at 39.4 nM.
`O=C(NCCCCN1CCN(c2c(Cl)sc3cc(F)ccc23)CC1)C1CCCC1` [compound 815071]: the Ki (read-out: D3K1) came to 7.2 nM.
For `O=C(NCc1sccc1CN1CCN(c2csc3cc(F)ccc23)CC1)c1cccc(Cl)c1` [compound 826296], the Ki under setting [4] came to 106 nM.
With `CC(C)CCNC[C@@H]1C[C@H]1CN1CCN(c2csc3cc(C(F)(F)F)ccc23)CC1` [compound 832276], the Ki (the 23rd table, read-out: D3 Ki) was 30.3 nM.
As to `O=C(NCC1CC1CN1CCCN(c2csc3cc(F)ccc23)CC1)c1ccc(-c2ccccc2)cc1` (racemic) [compound 830406], the Ki under setting [5] was determined as 27 nM.
On the same count and under the same terms, next, `O=C(NCC1CC1CN1CCCN(c2csc3cc(F)ccc23)CC1)c1ccc(C(F)(F)F)cc1` (racemic) [compound 830404]: 51.9 nM.
Regarding `O=C(N[C@@H](CO)CCCN1CCN(c2csc3cc(C(F)(F)F)ccc23)CC1)c1ccc(-c2ccccc2)cc1` [compound 815670], the Ki runs as follows: (read-out: D3K1) 192 nM; under setting [1], 192 nM.
Regarding `O=C(NC/C=C/CN1CCN(c2csc3cc(C(F)(F)F)ccc23)CC1)c1ccc(F)cc1` [compound 827719], the Ki (read-out: D3K1) was 51 nM.
With `O=C(NCc1sccc1CN1CCN(c2csc3cc(F)ccc23)CC1)c1cnc2ccccc2n1` [compound 826310], the Ki under setting [4] worked out at 203 nM.
On to `O=C(Nc1cccc(CN2CCN(c3csc4cc(F)ccc34)CC2)c1)c1cnc2ccccc2n1` [compound 822184], for which the Ki (the 19th table, read-out: D3 Ki) stood at 271 nM.
On to `O=C(NCC(CO)CCN1CCN(c2csc3cc(C(F)(F)F)ccc23)CC1)c1ccoc1` (stereo not shown) [818925ES], for which the Ki (Table 2, read-out: D3K1) was found to be 293 nM.
As to `C[C@@H]1CN(c2csc3cc(C(F)(F)F)ccc23)C[C@H](C)N1CCCCNC(=O)c1ccc(C(C)(C)C)cc1` [compound 826934], under setting [3], the Ki is 227 nM.
The same measure, in the same setting: then `C[C@@H]1CN(c2csc3cc(C(F)(F)F)ccc23)C[C@H](C)N1CCCCNC(=O)c1c[nH]c2ccccc12` [compound 826952], with 164 nM.
As to `O=C(NCCCCN1CCCN(c2csc3cc(F)ccc23)CC1)c1cc2ccccc2[nH]1` [S977818], under setting [2], the Ki turned out to be 1.85 nM.
`O=C(NCCCCCN1CCN(c2csc3cc(F)ccc23)CC1)c1cccc2ccccc12` [compound 826778]: under setting [1], the Ki amounted to 2.75 nM.
`O=C(NCc1sccc1CN1CCN(c2csc3cc(F)ccc23)CC1)c1cccc2cc[nH]c12` [compound 826314]: the Ki under setting [4] is 46 nM.
In the case of `O=C(NCCCCCN1CCC(c2noc3ccsc23)CC1)c1ccccc1[N+](=O)[O-]` [compound 816207], the Ki under setting [2] worked out at 182 nM.
Consider `O=C(NCCCCN1CCN(c2noc3ccsc23)CC1)c1ccc(Cl)cc1` [compound 829675], for which, under setting [6], the Ki is 38.9 nM.
On to `C[C@@H]1CN(c2csc3cc(C(F)(F)F)ccc23)C[C@H](C)N1CCCCNC(=O)c1ccc2ccccc2c1` [compound 827042], for which, under setting [3], the Ki came to 112 nM.
Turning to `O=C(NCCCCN1CCN(c2c(Cl)sc3cc(F)ccc23)CC1)c1ccccc1C(F)(F)F` [compound 815065], where the note is “read-out: D3K1”, the Ki is 43.8 nM.
For the molecule `O=C(NCc1ccoc1CN1CCN(c2csc3cc(F)ccc23)CC1)c1cccnc1Cl` [compound 825853], the Ki (the 20th table, read-out: D3 Ki) was found to be 237 nM.
With `O=C(NCCCCN1CCN(c2noc3ccsc23)CC1)c1cccs1` [compound 829687], under setting [6], the Ki is 50.3 nM.
For `O=C(NCCCCN1CCCN(c2csc3cc(F)ccc23)CC1)c1cc2cc(O)ccc2[nH]1` [compound 817270], under setting [2], the Ki is 0.448 nM.
